# What was measured:
# Format in all cases: functional
# [1] = system: SK-OV-3; experiment: Growth inhibition of human SKOV3 cells assessed as cell growth at 1 uM after 48 hrs by SRB assay; conditions: SK-OV-3, 48 h, read-out: Activity
# [2] = system: RXF 393; experiment: Growth inhibition of human RXF393 cells assessed as cell growth at 1 uM after 48 hrs by SRB assay; conditions: RXF 393, 48 h, read-out: Activity
# [3] = system: TK-10; experiment: Growth inhibition of human TK10 cells assessed as cell growth at 1 uM after 48 hrs by SRB assay; conditions: TK-10, 48 h, read-out: Activity
# [4] = system: MDA-MB-231; experiment: Growth inhibition of human MDA-MB-231 cells assessed as cell growth at 1 uM after 48 hrs by SRB assay; conditions: MDA-MB-231, 48 h, read-out: Activity
# [5] = system: HCC 2998; experiment: Growth inhibition of human HCC2998 cells assessed as cell growth at 10 uM after 48 hrs by SRB assay; conditions: HCC 2998, 48 h, read-out: Activity
# [6] = system: KM12; experiment: Growth inhibition of human KM12 cells after 48 hrs by […] growth inhibition assay; conditions: KM12, 48 h
# [7] = system: SF-295; experiment: Growth inhibition of human SF295 cells after 48 hrs by […] growth inhibition assay; conditions: SF-295, 48 h
# [8] = system: SF-539; experiment: Growth inhibition of human SF539 cells after 48 hrs by […] growth inhibition assay; conditions: SF-539, 48 h
# [9] = system: OVCAR-4; experiment: Growth inhibition of human OVCAR4 cells after 48 hrs by […] growth inhibition assay; conditions: OVCAR-4, 48 h
# [10] = system: A498; experiment: Growth inhibition of human A498 cells after 48 hrs by […] growth inhibition assay; conditions: A498, 48 h
# [11] = system: BT-549; experiment: Growth inhibition of human BT549 cells after 48 hrs by […] growth inhibition assay; conditions: BT-549, 48 h
# [12] = system: MCF7; experiment: Growth inhibition of human MCF7 cells after 48 hrs by […] growth inhibition assay; conditions: MCF7, 48 h
# [13] = Growth inhibition of human […] cells assessed as cell growth at 0.1 uM after 48 hrs by SRB assay; conditions: read-out: Activity
# [14] = system: HOP-62; experiment: Growth inhibition of human HOP62 cells assessed as cell growth at 0.1 uM after 48 hrs by SRB assay; conditions: HOP-62, 48 h, read-out: Activity
# [15] = system: NCI-H322M; experiment: Growth inhibition of human NCI-H322M cells assessed as cell growth at 0.1 uM after 48 hrs by SRB assay; conditions: read-out: Activity
# [16] = system: SF-268; experiment: Growth inhibition of human SF268 cells assessed as cell growth at 0.1 uM after 48 hrs by SRB assay; conditions: SF-268, 48 h, read-out: Activity
# [17] = system: U-251; experiment: Growth inhibition of human U251 cells assessed as cell growth at 0.1 uM after 48 hrs by SRB assay; conditions: U-251, 48 h, read-out: Activity
# [18] = system: U-251; experiment: Growth inhibition of human U251 cells assessed as cell growth at 10 uM after 48 hrs by SRB assay; conditions: U-251, 48 h, read-out: Activity
# [19] = system: SK-MEL-5; experiment: Growth inhibition of human SK-MEL-5 cells assessed as cell growth at 10 uM after 48 hrs by SRB assay; conditions: SK-MEL-5, 48 h, read-out: Activity
# [20] = system: UACC-257; experiment: Growth inhibition of human UACC257 cells assessed as cell growth at 10 uM after 48 hrs by SRB assay; conditions: UACC-257, 48 h, read-out: Activity
# [21] = system: CAKI-1; experiment: Growth inhibition of human Caki1 cells assessed as cell growth at 10 uM after 48 hrs by SRB assay; conditions: CAKI-1, 48 h, read-out: Activity
# [22] = system: NCI-H23; experiment: Growth inhibition of human NCI-H23 cells assessed as cell growth at 100 uM after 48 hrs by SRB assay; conditions: NCI-H23, 48 h, read-out: Activity
# [23] = system: SNB-75; experiment: Growth inhibition of human SNB75 cells assessed as cell growth at 100 uM after 48 hrs by SRB assay; conditions: SNB-75, 48 h, read-out: Activity
# [24] = system: OVCAR-3; experiment: Growth inhibition of human OVCAR3 cells assessed as cell growth at 100 uM after 48 hrs by SRB assay; conditions: OVCAR-3, 48 h, read-out: Activity
# [25] = system: A498; experiment: Growth inhibition of human A498 cells assessed as cell growth at 100 uM after 48 hrs by SRB assay; conditions: A498, 48 h, read-out: Activity
# [26] = system: EKVX; experiment: Growth inhibition of human EKVX cells assessed as cell growth at 1 mM after 48 hrs by SRB assay; conditions: read-out: Activity
# [27] = system: SF-268; experiment: Growth inhibition of human SF268 cells assessed as cell growth at 1 mM after 48 hrs by SRB assay; conditions: SF-268, 48 h, read-out: Activity
# [28] = system: NCI-H522; experiment: Growth inhibition of human NCI-H522 cells assessed as cell growth at 1 uM after 48 hrs by SRB assay; conditions: NCI-H522, 48 h, read-out: Activity
# [29] = system: K562; experiment: Growth inhibition of human K562 cells assessed as cell growth at 10 uM after 48 hrs by SRB assay; conditions: K562, 48 h, read-out: Activity
# [30] = system: MOLT-4; experiment: Growth inhibition of human MOLT4 cells assessed as cell growth at 10 uM after 48 hrs by SRB assay; conditions: MOLT-4, 48 h, read-out: Activity
# [31] = system: SW-620; experiment: Growth inhibition of human SW620 cells assessed as cell growth at 10 uM after 48 hrs by SRB assay; conditions: SW-620, 48 h, read-out: Activity
# [32] = read-out: LC50 (the source's name)
# [33] = read-out: pLC50 (the source's name) (converted)
structure (smiles),measurement,setting,value
CNC(=O)NC[C@H]1O[C@@H](n2cnc3c(NC(=O)Nc4ccccc4)ncnc32)[C@H](O[Si](C)(C)C(C)(C)C)[C@@H]1O[Si](C)(C)C(C)(C)C,growth at 1 µM,[1],113%
same,growth at 1 µM,[2],73%
same,growth at 1 µM,[3],113%
same,growth at 1 µM,[4],109%
same,growth at 10 µM,[5],106%
same,GI50,[6]; read-out: GI50,2130 nM
same,CC50,[6]; [32],8.05 µM
same,TGI,[6]; read-out: TGI,4.14 µM
same,GI50,[6]; read-out: pGI50 (converted),2140 nM
same,CC50,[6]; [33],8.13 µM
same,TGI,[6]; read-out: pTGI (converted),4.17 µM
same,GI50,[7]; read-out: GI50,3.84 µM
same,LC50,[7]; read-out: LC50,> 100 µM
same,TGI,[7]; read-out: TGI,31.8 µM
same,GI50,[7]; read-out: pGI50 (converted),3.8 µM
same,LC50,[7]; read-out: pLC50 (converted),> 100 µM
same,TGI,[7]; read-out: pTGI (converted),31.6 µM
same,GI50,[8]; read-out: GI50,3.07 µM
same,CC50,[8]; [32],94.3 µM
same,TGI,[8]; read-out: TGI,13 µM
same,GI50,[8]; read-out: pGI50 (converted),3.09 µM
same,CC50,[8]; [33],93.3 µM
same,TGI,[8]; read-out: pTGI (converted),12.9 µM
same,GI50,[9]; read-out: GI50,3.44 µM
same,CC50,[9]; [32],> 100 µM
same,TGI,[9]; read-out: TGI,43.9 µM
same,GI50,[9]; read-out: pGI50 (converted),3.47 µM
same,CC50,[9]; [33],> 100 µM
same,TGI,[9]; read-out: pTGI,43.7 µM
same,GI50,[10]; read-out: GI50,2030 nM
same,CC50,[10]; [32],19.5 µM
same,TGI,[10]; read-out: TGI,4.96 µM
same,GI50,[10]; read-out: pGI50 (converted),2040 nM
same,CC50,[10]; [33],19.5 µM
same,TGI,[10]; read-out: pTGI (converted),5.01 µM
same,GI50,[11]; read-out: GI50,2940 nM
same,CC50,[11]; [32],> 100 µM
same,TGI,[11]; read-out: TGI,8.18 µM
same,GI50,[11]; read-out: pGI50 (converted),2950 nM
same,CC50,[11]; [33],> 100 µM
same,TGI,[11]; read-out: pTGI (converted),8.13 µM
same,GI50,[12]; read-out: GI50,2690 nM
same,CC50,[12]; [32],> 100 µM
same,TGI,[12]; read-out: TGI,19.3 µM
same,GI50,[12]; read-out: pGI50 (converted),2690 nM
same,CC50,[12]; [33],> 100 µM
same,TGI,[12]; read-out: pTGI (converted),19.5 µM
same,growth at 0.1 µM,[13],102%
same,growth at 0.1 µM,[14],102%
same,growth at 0.1 µM,[15],102%
same,growth at 0.1 µM,[16],104%
same,growth at 0.1 µM,[17],102%
same,growth at 10 µM,[18],93%
same,growth at 10 µM,[19],89%
same,growth at 10 µM,[20],104%
same,growth at 10 µM,[21],96%
same,growth at 100 µM,[22],-5%
same,growth at 100 µM,[23],14%
same,growth at 100 µM,[24],-39%
same,growth at 100 µM,[25],-39%
same,growth at 1000 µM,[26],-9%
same,growth at 1000 µM,[27],-45%
same,growth at 1 µM,[28],90%
CNC(=O)OC[C@H]1O[C@@H](n2cnc3c(NC(=O)Nc4ccccc4)ncnc32)[C@H](O[Si](C)(C)C(C)(C)C)[C@@H]1O[Si](C)(C)C(C)(C)C,growth at 10 µM,[29],75.4%
same,growth at 10 µM,[30],75.3%
same,growth at 10 µM,[31],98%
same,growth at 10 µM,[18],86%
same,growth at 10 µM,[19],101%
same,growth at 10 µM,[21],106%

# From ChEMBL document CHEMBL1681651, “A broad spectrum anticancer nucleoside with selective toxicity against human colon cells in vitro” (2011)
